Here are results for 19 compounds from patent publication US20250326742A1, “THERAPEUTIC COMPOUNDS” (RUTGERS, THE STATE UNIVERSITY OF NEW JERSEY, priority 2024, published 2025).

The structures appear in SMILES notation.

A short description of data set [1]: Cytotoxicity assay in Vero E6 cells (neutral red uptake). The class given is cell-based. The settings on record: African green monkey, 2 days at 37° C. As to the method:
Cytotoxicity Assay in Vero E6 Cells
Briefly, 80,000 cells/ml of the tested cell lines were dispensed into 96-well cell culture plates at 100 μl per well. Twenty-four hours later, the growth medium was removed and washed with 150 μl of PBS buffer. Two hundred microliters of fresh serum-free medium containing serial diluted compounds was added to each well. After incubating for 2 days at 37° C., the medium was removed and replaced with 100 μl of DMEM medium containing neutral red (40 μg/ml) and incubated for 2 to 4 hours at 37° C. The amount of neutral red taken up was determined by measuring the absorbance at 540 nm using a Multiskan FC Microplate Photometer (Thermo Fisher Scientific). The CC50 values were calculated from best-fit dose-response curves with variable slope in Prism 8.

In another data set the target is SARS-CoV-2 PLpro (Severe acute respiratory syndrome coronavirus 2, UniProt P0DTD1). Kind of data set: biochemical. The settings on record: 200 nM PLpro, 10 μM FRET substrate, 30 min preincubation at 30° C. As to the method: FRET-Based PL^pro Enzymatic Assay
The SARS-CoV-2 PL^pro enzymatic assays were carried out as follows: The assay was assembled in 96-well plates with 100 μl of 200 nM PL^Pro protein in PL^Pro reaction buffer [50 mM Hepes (pH 7.5), 0.01% Triton X-100, and 5 mM DTT]. Then, 1 μl of testing compound at various concentrations was added to each well and incubated at 30° C. for 30 minutes. The enzymatic reaction was initiated by adding 1 μl of 1 mM FRET substrate (the final substrate concentration is 10 μM). The reaction was monitored in a Cytation 5 image reader with filters for excitation at 360/40 nm and emission at 460/40 nm at 30° C. for 1 hour. The initial velocity of the enzymatic reaction with and without testing compounds was calculated by linear regression for the first 15 minutes of the kinetic progress curve. The ICso values were calculated by plotting the initial velocity against various concentrations of testing compounds with a dose-response function in Prism 8 software.

On to `CCn1ccc(-c2cc(-c3cnn(C)c3)cc([C@@H](C)NC(=O)c3ccccc3CCC(=O)NNC(=O)/C=C/C(=O)N3CCC3)c2)n1` [Example 22, (R,E)-2-(3-(2-(4-(azetidin-1-yl)-4-oxobut-2-enoyl) hydrazineyl)-3-oxopropyl)-N-(1-(3-(1-ethyl-1H-pyrazol-3-yl)-5-(1-methyl-1H-pyrazol-4-yl)phenyl)ethyl)benzamide], for which the half-maximal cytotoxic concentration (CC50) at 2 days in data set [1] is > 250 µM. For the same compound, the concentration for half-maximal inhibition (IC50) against SARS-CoV-2 PLpro is < 1 µM. Taken in the same sequence, the figures for `CCn1ccc(-c2cc(-c3cnn(C)c3)cc([C@@H](C)NC(=O)c3ccccc3CCC(=O)NNC(=O)/C=C/C(=O)NC3CC3)c2)n1` [Example 13, (R,E)-2-(3-(2-(4-(Cyclopropylamino)-4-oxobut-2-enoyl)hydrazineyl)-3-oxopropyl)-N-(1-(3-(1-ethyl-1H-pyrazol-3-yl)-5-(1-methyl-1H-pyrazol-4-yl)phenyl)ethyl)benzamide] were > 250 µM and < 1 µM. With `CCn1ccc(-c2cc(-c3cnn(C)c3)cc([C@@H](C)NC(=O)c3ccccc3CCC(=O)NNC(=O)/C=C/C(=O)N3CC(C)(C)C3)c2)n1` [Example 8, (R,E)-2-(3-(2-(4-(3,3-Dimethylazetidin-1-yl)-4-oxobut-2-enoyl)hydrazineyl)-3-oxopropyl)-N-(1-(3-(1-ethyl-1H-pyrazol-3-yl)-5-(1-methyl-1H-pyrazol-4-yl)phenyl)ethyl)benzamide], the CC50 at 2 days in data set [1] was > 250 µM. In data set [1], `C=C(Cl)C(=O)NNC(=O)CCc1ccccc1C(=O)N[C@H](C)c1cc(-c2cnn(C)c2)cc(-c2ccn(CC)n2)c1` [Example 17, (R)-2-(3-(2-(2-Chloroacryloyl)hydrazineyl)-3-oxopropyl)-N-(1-(3-(1-ethyl-1H-pyrazol-3-yl)-5-(1-methyl-1H-pyrazol-4-yl)phenyl)ethyl)] came in with a CC50 at 2 days of 33 µM. This compound displayed an IC50 at SARS-CoV-2 PLpro of 1 to 5 µM. Taken in the same sequence, the figures for `C=CS(=O)(=O)NNC(=O)CCc1ccccc1C(=O)N[C@H](C)c1cc(-c2cnn(C)c2)cc(-c2ccn(CC)n2)c1` [Example 6, (R)-N-(1-(3-(1-Ethyl-1H-pyrazol-3-yl)-5-(1-methyl-1H-pyrazol-4-yl)phenyl)ethyl)-2-(3-oxo-3-(2-(vinylsulfonyl)hydrazineyl)propyl)benzamide] were 31 µM and < 1 µM. On to `CCn1ccc(-c2cc(-c3cnn(C)c3)cc([C@@H](C)NC(=O)c3ccccc3CCC(=O)NNC(=O)/C=C/C(=O)N3CC(C(F)(F)F)C3)c2)n1` [Example 18, (R,E)-N-(1-(3-(1-Ethyl-1H-pyrazol-3-yl)-5-(1-methyl-1H-pyrazol-4-yl)phenyl)ethyl)-2-(3-oxo-3-(2-(4-oxo-4-(3-(trifluoromethyl)azetidin-1-yl)but-2-enoyl)hydrazineyl)propyl)benzamide], for which, on SARS-CoV-2 PLpro, the concentration for half-maximal inhibition (IC50) was < 1 µM. On the same count and under the same terms, for `CCOC(=O)/C=C/C(=O)NNC(=O)CCc1ccccc1C(=O)N[C@H](C)c1cc(-c2cnn(C)c2)cc(-c2ccn(CC)n2)c1` [Example 9, Ethyl (R,E)-4-(2-(3-(2-((1-(3-(1-ethyl-1H-pyrazol-3-yl)-5-(1-methyl-1H-pyrazol-4-yl)phenyl)ethyl)carbamoyl)phenyl)propanoyl)hydrazineyl)-4-oxobut-2-enoate] the value was < 1 µM. Consider `CCn1ccc(-c2cc(-c3cnn(C)c3)cc([C@@H](C)NC(=O)c3ccccc3CCC(=O)NNC(=O)/C=C/CN(C)C)c2)n1` [Example 5, (R,E)-2-(3-(2-(4-(Dimethylamino)but-2-enoyl)hydrazineyl)-3-oxopropyl)-N-(1-(3-(1-ethyl-1H-pyrazol-3-yl)-5-(1-methyl-1H-pyrazol-4-yl)phenyl)ethyl)benzamide], for which the 50% cytotoxic concentration (CC50) at 2 days in data set [1] is > 500 µM. At SARS-CoV-2 PLpro, the half-inhibitory concentration (IC50) is > 5 µM.

With `CCn1ccc(-c2cc(-c3cnn(C)c3)cc([C@@H](C)NC(=O)c3ccccc3CCC(=O)NNC(=O)CCl)c2)n1` [Example 15, (R)-2-(3-(2-(2-Chloroacetyl)hydrazineyl)-3-oxopropyl)-N-(1-(3-(1-ethyl-1H-pyrazol-3-yl)-5-(1-methyl-1H-pyrazol-4-yl)phenyl)ethyl)benzamide], in data set [1], the 50% cytotoxic concentration (CC50) at 2 days was > 250 µM. Further, the IC50 against SARS-CoV-2 PLpro is < 1 µM.

Turning to `C=CC(=O)NNC(=O)CCc1ccccc1C(=O)N[C@H](C)c1cc(-c2cnn(C)c2)cc(-c2ccn(CC)n2)c1` [Example 4, (R)-2-(3-(2-Acryloylhydrazineyl)-3-oxopropyl)-N-(1-(3-(1-ethyl-1H-pyrazol-3-yl)-5-(1-methyl-1H-pyrazol-4-yl)phenyl)ethyl)benzamide], the CC50 at 2 days in data set [1] is > 500 µM. The same compound had a 50% inhibitory concentration (IC50) at SARS-CoV-2 PLpro of 1 to 5 µM. On the same counts, the results for `C#CCNC(=O)CCc1ccccc1C(=O)N[C@H](C)c1cc(-c2cnn(C)c2)cc(-c2ccn(CC)n2)c1` [Example 2, (R)-N-(1-(3-(1-Ethyl-1H-pyrazol-3-yl)-5-(1-methyl-1H-pyrazol-4-yl)phenyl)ethyl)-2-(3-oxo-3-(prop-2-yn-1-ylamino)propyl)benzamide] are 256 µM and 1 to 5 µM.

For `CCn1ccc(-c2cc(-c3cnn(C)c3)cc([C@@H](C)NC(=O)c3ccccc3CCC(=O)NNC(=O)C34CC(C3)C4)c2)n1` [Example 27, (R)-2-(3-(2-(bicyclo[1.1.1]pentane-1-carbonyl)hydrazineyl)-3-oxopropyl)-N-(1-(3-(1-ethyl-1H-pyrazol-3-yl)-5-(1-methyl-1H-pyrazol-4-yl)phenyl)ethyl)benzamide], the half-maximal cytotoxic concentration (CC50) at 2 days in data set [1] was > 250 µM. In addition, the IC50 against SARS-CoV-2 PLpro was > 5 µM.

Consider `CCn1ccc(-c2cc(-c3cnn(C)c3)cc([C@@H](C)NC(=O)c3ccccc3CCC(=O)NNS(=O)(=O)CCl)c2)n1` [Example 10, (R)-2-(3-(2-((Chloromethyl)sulfonyl)hydrazineyl)-3-oxopropyl)-N-(1-(3-(1-ethyl-1H-pyrazol-3-yl)-5-(1-methyl-1H-pyrazol-4-yl)phenyl)ethyl)benzamide], for which the half-maximal cytotoxic concentration (CC50) at 2 days in data set [1] is > 250 µM. Besides, on SARS-CoV-2 PLpro, the IC50 was > 5 µM. On the same counts, the results for `CCn1ccc(-c2cc(-c3cnn(C)c3)cc([C@@H](C)NC(=O)c3ccccc3CNC(=O)CNC(=O)/C=C/C(=O)N3CC(F)(F)C3)c2)n1` [Example 25, (R,E)-2-((2-(4-(3,3-difluoroazetidin-1-yl)-4-oxobut-2-enamido)acetamido)methyl)-N-(1-(3-(1-ethyl-1H-pyrazol-3-yl)-5-(1-methyl-1H-pyrazol-4-yl)phenyl)ethyl)benzamide] are > 500 µM and < 1 µM. Taken in the same sequence, the figures for `C=CS(=O)(=O)NCC(=O)NCc1ccccc1C(=O)N[C@H](C)c1cc(-c2cnn(C)c2)cc(-c2ccn(C)n2)c1` [Example 30, (R)-N-(1-(3-(1-methyl-1H-pyrazol-3-yl)-5-(1-methyl-1H-pyrazol-4-yl)phenyl)ethyl)-2-((2-(vinylsulfonamido)acetamido)methyl)benzamide] were > 250 µM and < 1 µM. Taken in the same sequence, the figures for `CCn1ccc(-c2cc(-c3cnn(C)c3)cc([C@@H](C)NC(=O)c3ccccc3CCC(=O)NNC(=O)/C=C/C(=O)NC34CC(C3)C4)c2)n1` [Example 20, (R,E)-2-(3-(2-(4-(Bicyclo[1.1.1]pentan-1-ylamino)-4-oxobut-2-enoyl)hydrazineyl)-3-oxopropyl)-N-(1-(3-(1-ethyl-1H-pyrazol-3-yl)-5-(1-methyl-1 H-pyrazol-4-yl)phenyl)ethyl)benzamide] were > 250 µM and < 1 µM. Consider `C=C(F)C(=O)NNC(=O)CCc1ccccc1C(=O)N[C@H](C)c1cc(-c2cnn(C)c2)cc(-c2ccn(CC)n2)c1` [Example 16, (R)-N-(1-(3-(1-Ethyl-1H-pyrazol-3-yl)-5-(1-methyl-1H-pyrazol-4-yl)phenyl)ethyl)-2-(3-(2-(2-fluoroacryloyl)hydrazineyl)-3-oxopropyl)benzamide], for which, in data set [1], the CC50 at 2 days was > 250 µM. Further, the IC50 on SARS-CoV-2 PLpro was > 5 µM.

In the case of `CCn1ccc(-c2cc(-c3cnn(C)c3)cc([C@@H](C)NC(=O)c3ccccc3CCC(=O)NNC(=O)/C=C/C(=O)NC3CC(F)(F)C3)c2)n1` [Example 14, (R,E)-2-(3-(2-(4-((3,3-Difluorocyclobutyl)amino)-4-oxobut-2-enoyl)hydrazineyl)-3-oxopropyl)-N-(1-(3-(1-ethyl-1H-pyrazol-3-yl)-5-(1-methyl-1H-pyrazol-4-yl)phenyl)ethyl)benzamide], the half-maximal cytotoxic concentration (CC50) at 2 days in data set [1] is > 250 µM. In addition, the half-maximal inhibitory concentration (IC50) at SARS-CoV-2 PLpro is < 1 µM.

For `CCn1ccc(-c2cc(-c3cnn(C)c3)cc([C@@H](C)NC(=O)c3ccccc3CCC(=O)NNC(=O)/C=C/C(=O)OC(C)(C)C)c2)n1` [Example 7, tert-Butyl (R,E)-4-(2-(3-(2-((1-(3-(1-ethyl-1H-pyrazol-3-yl)-5-(1-methyl-1H-pyrazol-4-yl)phenyl)ethyl)carbamoyl)phenyl)propanoyl)hydrazineyl)-4-oxobut-2-enoate], on SARS-CoV-2 PLpro, the IC50 is < 1 µM.

The term CC50 denotes the concentration giving 50% cytotoxicity. One may read the IC50 as the concentration needed to halve the response being measured. A higher IC50 goes with a need for much substance.
